Experimental data reported in US8802597B2, “Herbicidal pyrimidines” (E I du Pont de Nemours and Company, priority 2003, dated 2014).

Key:
Type in all cases: in vivo
[1] = system: common chickweed (Stellaria media); experiment: Test D pre/postemergence; conditions: scale 0 to 100 (100 = complete control)
Text: (§1) Seeds of plant species selected from catchweed bedstraw (galium; Galium aparine), common chickweed (Stellaria media), kochia (Kochia scoparia), lambsquarters (Chenopodium album), pigweed (Amaranthus retroflexus), Russian thistle (Salsola kali), wild buckwheat (Polygonum convolvulus), wild mustard (Sinapis arvensis), winter barley (Hordeum vulgare), and wheat (Triticum aestivum) were planted and treated preemergence with test chemicals formulated in a non-phytotoxic solvent mixture which included a surfactant.
(§2) At the same time, plants selected from these crop and weed species were treated with postemergence applications of some of the test chemicals formulated in the same manner. Plants ranged in height from 2 to 18 cm (1- to 4-leaf stage) for postemergence treatments. Treated plants and controls were maintained in a controlled growth environment for 15 to 25 days after which time all species were compared to controls and visually evaluated. Plant response ratings, summarized in Table D, are based on a scale of 0 to 100 where 0 is no effect and 100 is complete control. A dash (-) response means no test result.

[2] = system: pigweed (Amaranthus retroflexus); experiment: Test D pre/postemergence; conditions: scale 0 to 100 (100 = complete control)
Text: as §1, §2

[3] = system: wheat (Triticum aestivum); experiment: Test D pre/postemergence; conditions: scale 0 to 100 (100 = complete control)
Text: as §1, §2

[4] = system: Russian thistle (Salsola kali); experiment: Test D pre/postemergence; conditions: scale 0 to 100 (100 = complete control)
Text: as §1, §2

[5] = system: wild mustard (Sinapis arvensis); experiment: Test D pre/postemergence; conditions: scale 0 to 100 (100 = complete control)
Text: as §1, §2

[6] = system: lambsquarters (Chenopodium album); experiment: Test D pre/postemergence; conditions: scale 0 to 100 (100 = complete control)
Text: as §1, §2

kochia (Kochia scoparia) = experiment: Test D pre/postemergence; conditions: scale 0 to 100 (100 = complete control)
Text: as §1, §2

[7] = system: wild buckwheat (Polygonum convolvulus); experiment: Test D pre/postemergence; conditions: scale 0 to 100 (100 = complete control)
Text: as §1, §2

[8] = system: catchweed bedstraw (galium; Galium aparine); experiment: Test D pre/postemergence; conditions: scale 0 to 100 (100 = complete control)
Text: as §1, §2

[9] = system: spanishneedles (Bidens bipinnata); experiment: Test G pre/postemergence; conditions: Preemergence
Method in brief: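 Visual scores from 0 (no effect) to 100 (complete control) were assigned relative to untreated controls 12 to 21 days after treatment. Compounds, formulated in a non-phytotoxic solvent mixture with surfactant, were applied preemergence to planted seed or postemergence to plants at the 1- to 4-leaf stage (2 to 18 cm).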

COC(=O)c1nc(C2CC2)nc(N)c1Cl [Compound 9, methyl 6-amino-5-chloro-2-cyclopropyl-4-pyrimidinecarboxylate]
Plant response rating, Chickweed ([1]; Postemergence, 16 g ai/ha): 60 | Plant response rating, Chickweed ([1]; Postemergence, 31 g ai/ha): 100 | Plant response rating, Chickweed ([1]; Postemergence, 62 g ai/ha): 100 | Plant response rating, Chickweed ([1]; Postemergence, 125 g ai/ha): 100 | Plant response rating, Chickweed ([1]; Preemergence, 16 g ai/ha): 65 | Plant response rating, Chickweed ([1]; Preemergence, 31 g ai/ha): 95 | Plant response rating, Chickweed ([1]; Preemergence, 62 g ai/ha): 100 | Plant response rating, Chickweed ([1]; Preemergence, 125 g ai/ha): 100 | Plant response rating, Pigweed ([2]; Postemergence, 16 g ai/ha): 65 | Plant response rating, Pigweed ([2]; Postemergence, 31 g ai/ha): 100 | Plant response rating, Pigweed ([2]; Postemergence, 62 g ai/ha): 100 | Plant response rating, Pigweed ([2]; Postemergence, 125 g ai/ha): 100 | Plant response rating, Pigweed ([2]; Preemergence, 16 g ai/ha): 65 | Plant response rating, Pigweed ([2]; Preemergence, 31 g ai/ha): 80 | Plant response rating, Pigweed ([2]; Preemergence, 62 g ai/ha): 100 | Plant response rating, Pigweed ([2]; Preemergence, 125 g ai/ha): 100 | Plant response rating, Wheat ([3]; Postemergence, 16 g ai/ha): 50 | Plant response rating, Wheat ([3]; Postemergence, 31 g ai/ha): 80 | Plant response rating, Wheat ([3]; Postemergence, 62 g ai/ha): 90 | Plant response rating, Wheat ([3]; Postemergence, 125 g ai/ha): 100 | Plant response rating, Wheat ([3]; Preemergence, 16 g ai/ha): 60 | Plant response rating, Wheat ([3]; Preemergence, 31 g ai/ha): 75 | Plant response rating, Wheat ([3]; Preemergence, 62 g ai/ha): 75 | Plant response rating, Russian Thistle ([4]; Postemergence, 16 g ai/ha): 65 | Plant response rating, Russian Thistle ([4]; Postemergence, 31 g ai/ha): 90 | Plant response rating, Russian Thistle ([4]; Postemergence, 62 g ai/ha): 100 | Plant response rating, Russian Thistle ([4]; Postemergence, 125 g ai/ha): 100 | Plant response rating, Russian Thistle ([4]; Preemergence, 16 g ai/ha): 100 | Plant response rating, Russian Thistle ([4]; Preemergence, 31 g ai/ha): 100 | Plant response rating, Russian Thistle ([4]; Preemergence, 62 g ai/ha): 100 | Plant response rating, Russian Thistle ([4]; Preemergence, 125 g ai/ha): 100 | Plant response rating, Mustard, Wild ([5]; Postemergence, 16 g ai/ha): 65 | Plant response rating, Mustard, Wild ([5]; Postemergence, 31 g ai/ha): 80 | Plant response rating, Mustard, Wild ([5]; Postemergence, 62 g ai/ha): 80 | Plant response rating, Mustard, Wild ([5]; Postemergence, 125 g ai/ha): 95 | Plant response rating, Mustard, Wild ([5]; Preemergence, 16 g ai/ha): 60 | Plant response rating, Mustard, Wild ([5]; Preemergence, 31 g ai/ha): 70 | Plant response rating, Mustard, Wild ([5]; Preemergence, 62 g ai/ha): 85 | Plant response rating, Mustard, Wild ([5]; Preemergence, 125 g ai/ha): 85 | Plant response rating, Lambsquarters ([6]; Postemergence, 16 g ai/ha): 95 | Plant response rating, Lambsquarters ([6]; Postemergence, 31 g ai/ha): 100 | Plant response rating, Lambsquarters ([6]; Postemergence, 62 g ai/ha): 100 | Plant response rating, Lambsquarters ([6]; Postemergence, 125 g ai/ha): 100 | Plant response rating, Lambsquarters ([6]; Preemergence, 16 g ai/ha): 65 | Plant response rating, Lambsquarters ([6]; Preemergence, 31 g ai/ha): 100 | Plant response rating, Lambsquarters ([6]; Preemergence, 62 g ai/ha): 100 | Plant response rating, Lambsquarters ([6]; Preemergence, 125 g ai/ha): 100 | Plant response rating, Kochia (kochia (Kochia scoparia); Postemergence, 16 g ai/ha): 85 | Plant response rating, Kochia (kochia (Kochia scoparia); Postemergence, 31 g ai/ha): 100 | Plant response rating, Kochia (kochia (Kochia scoparia); Postemergence, 62 g ai/ha): 100 | Plant response rating, Kochia (kochia (Kochia scoparia); Postemergence, 125 g ai/ha): 100 | Plant response rating, Kochia (kochia (Kochia scoparia); Preemergence, 16 g ai/ha): 70 | Plant response rating, Kochia (kochia (Kochia scoparia); Preemergence, 31 g ai/ha): 98 | Plant response rating, Kochia (kochia (Kochia scoparia); Preemergence, 62 g ai/ha): 100 | Plant response rating, Kochia (kochia (Kochia scoparia); Preemergence, 125 g ai/ha): 100 | Plant response rating, Buckwheat, Wild ([7]; Postemergence, 16 g ai/ha): 65 | Plant response rating, Buckwheat, Wild ([7]; Postemergence, 31 g ai/ha): 80 | Plant response rating, Buckwheat, Wild ([7]; Postemergence, 62 g ai/ha): 100 | Plant response rating, Buckwheat, Wild ([7]; Postemergence, 125 g ai/ha): 100 | Plant response rating, Buckwheat, Wild ([7]; Preemergence, 16 g ai/ha): 60 | Plant response rating, Buckwheat, Wild ([7]; Preemergence, 31 g ai/ha): 85 | Plant response rating, Buckwheat, Wild ([7]; Preemergence, 62 g ai/ha): 100 | Plant response rating, Buckwheat, Wild ([7]; Preemergence, 125 g ai/ha): 100 | Plant response rating, Galium ([8]; Postemergence, 16 g ai/ha): 100 | Plant response rating, Galium ([8]; Postemergence, 31 g ai/ha): 100 | Plant response rating, Galium ([8]; Postemergence, 62 g ai/ha): 100 | Plant response rating, Galium ([8]; Postemergence, 125 g ai/ha): 100 | Plant response rating, Galium ([8]; Preemergence, 16 g ai/ha): 85 | Plant response rating, Galium ([8]; Preemergence, 31 g ai/ha): 100 | Plant response rating, Galium ([8]; Preemergence, 62 g ai/ha): 100 | Plant response rating, Galium ([8]; Preemergence, 125 g ai/ha): 100 | Plant response rating, Spanishneedles ([9]; 62 g ai/ha, scale 0-100): 100 | Plant response rating, Spanishneedles ([9]; 125 g ai/ha, scale 0-100): 100 | Plant response rating, Spanishneedles ([9]; 250 g ai/ha, scale 0-100): 100 | Plant response rating, Spanishneedles ([9]; 500 g ai/ha, scale 0 to 100): 100
